Data taken from patent US8012943B2, “Antibacterial agents” (Optimer Pharmaceuticals, Inc., priority 2003, dated 2011).
Values after ≈ are worked out from the molar mass of the structure shown. Read-outs that look alike come from different tables or passages of the source.

Columns and labels:
Test in all cases: MIC, NCCLS broth microdilution
H. influenzae ATCC 49247 = type: cell-based, Haemophilus influenzae; conditions: 5% CO2
Procedure: (§1) Antibacterial activity of the novel Formula 1 and Formula 2 compounds and their pharmaceutically acceptable addition salts with organic and inorganic acids was determined against a series of microorganisms from the American Type Culture Collection (ATCC) and clinical Streptococcus sp isolates. The ATCC strains included: Staphylococcus aureus, Enterococcus faecium, Klebsiella pneumoniae, Escherichia coli, Salmonella typhimurium, Streptococcus pneumoniae, Streptococcus pyogenes, and Haemophilus influenzae. The clinical strains included macrolide resistant Streptococcus sp. with either Erm or MefA resistance mechanisms. The clinical isolates were identified using the API biochemical identification system (BioMerieux).
(§2) Antimicrobial susceptibility testing was performed according to recommendations by the National Committee for Clinical Laboratory Standards (NCCLS M100-S12, M7-A5). Briefly, two fold dilutions of compounds were made in microtiter plates. Each well of the microtiter plate was inoculated with test microorganisms at a final density 5×10^5 colony forming units (cfu)/mL. The microtiter plates were incubated at 35° C. under aerobic conditions, except for H. influenzae and S. pyogenes which were incubated at 5% CO2. The minimal inhibitory concentration (MIC) was defined as the lowest concentration of compound that inhibited growth. The results of represented examples of this invention on standard test microorganisms and clinical isolates in comparison with azithromycin and telithromycin are shown in Table 1 and Table 2.

S. pneumoniae 303(ErmB) = type: cell-based, Streptococcus pneumoniae
Procedure: as §1, §2

S. pneumoniae ATCC 49619 = type: cell-based, Streptococcus pneumoniae
Procedure: as §1, §2

S. pneumoniae 163(MefA) = type: cell-based, Streptococcus pneumoniae
Procedure: as §1, §2

[1] = tested on: S. Typhimurium ATCC 14028; type: cell-based; conditions: Salmonella enterica, Table 1
Procedure: as §1
as §2, with “growth.” for “growth. The results of represented examples of this invention on standard test microorganisms and clinical isolates in comparison with azithromycin and telithromycin are shown in Table 1 and Table 2.”

E. Coli ATCC 25922 = type: cell-based; conditions: Escherichia coli, ATCC25922, Table 1
Procedure: as §1, §2

[2] = tested on: S. aureus ATCC 29213 (MSSA) MLS-S; type: cell-based; conditions: Staphylococcus aureus, Table 1
Procedure: as §1, §2

S. pyogenes ATCC 19615 = type: cell-based; conditions: Streptococcus pyogenes, ATCC19615, 5% CO2, Table 1
Procedure: as §1, §2

E. faecium ATCC 19434 = type: cell-based; conditions: Enterococcus faecium, ATCC19434, Table 1
Procedure: as §1, §2

K. Pneumonia 13883 = type: cell-based; conditions: Klebsiella pneumoniae, Table 1
Procedure: as §1, §2

S. aureus MRSA 33591 = type: cell-based; conditions: Staphylococcus aureus, Table 1
Procedure: as §1, §2

[3] = tested on: S. pneumoniae 3773 (Erm B); type: cell-based, Streptococcus pneumoniae
Procedure: as §1, §2

S. pyogenes 1850 = type: cell-based; conditions: Streptococcus pyogenes, Table 2
Procedure: as §1, §2

S. pyogenes 1721 = type: cell-based; conditions: Streptococcus pyogenes, Table 2
Procedure: as §1, §2

S. pyogenes 3262 = type: cell-based; conditions: Streptococcus pyogenes, Table 2
Procedure: as §1, §2

S. pneumoniae 5032 = type: cell-based; conditions: Streptococcus pneumoniae, Table 2
Procedure: as §1, §2

S. pyogenes 3029 = type: cell-based; conditions: Streptococcus pyogenes, Table 2
Procedure: as §1, §2

[4] = Haemophilus influenzae, ATCC49247, H. influenzae ATCC 49247, Table 1, read-out: MIC
[5] = Streptococcus pneumoniae, S. pneumoniae 303(ErmB), Table 1, read-out: MIC
[6] = Streptococcus pneumoniae, ATCC49619, Table 1, read-out: MIC
[7] = Streptococcus pneumoniae, S. pneumoniae 163(MefA), Table 1, read-out: MIC
[8] = Haemophilus influenzae, ATCC49247, H. influenzae ATCC 49247, Table 2, read-out: MIC
[9] = Streptococcus pneumoniae, S. pneumoniae ErmB 303, Table 2, read-out: MIC
[10] = Streptococcus pneumoniae, ATCC49619, Table 2, read-out: MIC
[11] = Streptococcus pneumoniae, Table 2, read-out: MIC
[12] = Streptococcus pneumoniae, S. pneumoniae 163 (Mef A), Table 2, read-out: MIC

SMILES | MIC (H. influenzae ATCC 49247; [4]) | MIC (S. pneumoniae 303(ErmB); [5]) | MIC (S. pneumoniae ATCC 49619; [6]) | MIC (S. pneumoniae 163(MefA); [7]) | MIC [1] | MIC (E. Coli ATCC 25922) | MIC [2] | MIC (S. pyogenes ATCC 19615) | MIC (E. faecium ATCC 19434) | MIC (K. Pneumonia 13883) | MIC (S. aureus MRSA 33591) | MIC (H. influenzae ATCC 49247; [8]) | MIC (S. pneumoniae 303(ErmB); [9]) | MIC (S. pneumoniae ATCC 49619; [10]) | MIC [3, 11] | MIC (S. pyogenes 1850) | MIC (S. pyogenes 1721) | MIC (S. pyogenes 3262) | MIC (S. pneumoniae 5032) | MIC (S. pyogenes 3029) | other results
CC[C@H]1OC(=O)[C@H](C)[C@@H](O[C@H]2C[C@@](C)(OC)[C@@H](O)[C@H](C)O2)[C@H](C)[C@@H](O[C@@H]2O[C@H](C)C[C@H](N(C)C)[C@H]2O)[C@](C)(O)C[C@@H](C)CN(C)[C@H](C)[C@@H](O)[C@]1(C)O [Azithromycin, reference compound] | 2 µg/mL (≈ 2.67 µM) | 0.5 µg/mL (≈ 0.668 µM) | ≤ 0.125 µg/mL | ≤ 0.125 µg/mL | 4 µg/mL (≈ 5.34 µM) | 8 µg/mL (≈ 10.7 µM) | 1 µg/mL (≈ 1.34 µM) | 1 µg/mL (≈ 1.34 µM) | 4 µg/mL (≈ 5.34 µM) | 8 µg/mL (≈ 10.7 µM) | > 64 µg/mL | – | – | – | – | – | – | – | – | – | –
CC[C@H]1OC(=O)[C@H](C)C(=O)[C@H](C)[C@@H](OC2OC(C)CC(N(C)C)C2O)[C@@](C)(OC)C[C@@H](C)C(=O)[C@H](C)[C@H]2N(CCCCn3cc(Cn4nnc5ccccc54)nn3)C(=O)O[C@]12C (stereo partly drawn) [OP-1007, 11-N-[4-(4-Benzotriazol-1-ylmethyl-[1,2,3]triazol-1-yl)-butyl]-6-O-methyl-5-O-dasosaminyl-3-oxo-erythronolide A, 11,12-carbamate] | 0.5 µg/mL (≈ 0.577 µM) | > 64 µg/mL | ≤ 0.125 µg/mL | ≤ 0.125 µg/mL | 8 µg/mL (≈ 9.23 µM) | 64 µg/mL (≈ 73.8 µM) | ≤ 0.125 µg/mL | ≤ 0.125 µg/mL | ≤ 0.125 µg/mL | 32 µg/mL (≈ 36.9 µM) | > 64 µg/mL | – | – | – | – | – | – | – | – | – | –
CC[C@H]1OC(=O)[C@@](C)(F)C(=O)[C@H](C)[C@@H](O[C@@H]2O[C@H](C)C[C@H](N(C)C)[C@H]2O)[C@](C)(OC)C[C@@H](C)C(=O)[C@H](C)[C@H]2N(CCCCn3cc(-c4cccc(N)c4)nn3)C(=O)O[C@]12C [OP-1068, 11-N-[4-[4-(3-aminophenyl)-[1,2,3]triazol-1-yl]-butyl]-5-desosaminyl-3-oxo-2-fluoro-erythronolide A, 11,12-cyclic carbamate] | – | – | – | – | – | – | – | – | – | – | – | 2 µg/mL (≈ 2.37 µM) | ≤ 0.125 µg/mL | ≤ 0.125 µg/mL | 0.5 µg/mL (≈ 0.592 µM) | ≤ 0.125 µg/mL | 0.5 µg/mL (≈ 0.592 µM) | 0.5 µg/mL (≈ 0.592 µM) | 0.5 µg/mL (≈ 0.592 µM) | ≤ 0.125 µg/mL | MIC (H. influenzae ATCC 49247; H. influenzae ATCC 49247, Table 2): 4 µg/mL (≈ 4.73 µM); MIC ([3]; Table 2): 1 µg/mL (≈ 1.18 µM); MIC (S. pneumoniae 163(MefA); [12]): ≤ 0.125 µg/mL
CC[C@H]1OC(=O)[C@H](C)C(=O)[C@H](C)[C@@H](OC2OC(C)C(O)C(N(C)C)C2O)[C@@](C)(OC)C[C@@H](C)C(=O)[C@H](C)[C@H]2N(CCCCn3cc(Cn4nnc5ccccc54)nn3)C(=O)O[C@]12C (stereo partly drawn) [OP-1071, 11-N-[4-(4-Benzotriazol-1-ylmethyl-[1,2,3]triazol-1-yl)-butyl]-6-O-methyl-5-mycaminosyl-3-oxo-erythronolide A, 11,12-carbamate] | 2 µg/mL (≈ 2.26 µM) | > 64 µg/mL | ≤ 0.125 µg/mL | 0.5 µg/mL (≈ 0.566 µM) | > 64 µg/mL | > 64 µg/mL | 0.25 µg/mL (≈ 0.283 µM) | ≤ 0.125 µg/mL | ≤ 0.125 µg/mL | > 64 µg/mL | > 64 µg/mL | – | – | – | – | – | – | – | – | – | –
CC[C@H]1OC(=O)[C@H](C)C(=O)[C@H](C)[C@@H](OC(=O)C2CN(C(=O)OC(C)(C)C)C(C)(C)O2)[C@@](C)(OC)C[C@@H](C)C(=O)[C@H](C)[C@H]2N(CCCCn3cnc(-c4cccnc4)c3)C(=O)O[C@]12C (stereo partly drawn) [OP-1086] | > 64 µg/mL | 0.25 µg/mL (≈ 0.283 µM) | – | ≤ 0.125 µg/mL | > 64 µg/mL | > 64 µg/mL | 4 µg/mL (≈ 4.53 µM) | 32 µg/mL (≈ 36.3 µM) | 4 µg/mL (≈ 4.53 µM) | > 64 µg/mL | > 64 µg/mL | – | – | – | – | – | – | – | – | – | –
CC[C@H]1OC(=O)[C@@](C)(F)C(=O)[C@H](C)[C@@H](OC2OC(COC(C)=O)CC(N(C)C)C2O)[C@@](C)(OC)C[C@@H](C)C(=O)[C@H](C)[C@H]2N(CCCCn3cc(-c4cccc(N)n4)nn3)C(=O)O[C@]12C (stereo partly drawn) [OP-1356, 11-N-{4-[4-(6-Amino-pyridin-2-yl)-[1,2,3]triazol-1-yl]-butyl}-5-(3-dimethylamine-4-deoxy-6-O-acetyl-glucopyranosyl)-3-oxo-2-fluoro-erythronolide A,-11,12-cyclic carbamate] | – | – | – | – | – | – | – | – | – | – | – | 1 µg/mL (≈ 1.11 µM) | ≤ 0.125 µg/mL | ≤ 0.125 µg/mL | 0.5 µg/mL (≈ 0.553 µM) | 0.25 µg/mL (≈ 0.277 µM) | 4 µg/mL (≈ 4.42 µM) | 4 µg/mL (≈ 4.42 µM) | 1 µg/mL (≈ 1.11 µM) | 1 µg/mL (≈ 1.11 µM) | MIC (S. pneumoniae 163(MefA); [12]): ≤ 0.125 µg/mL
CC[C@H]1OC(=O)[C@@](C)(F)C(=O)[C@H](C)[C@@H](OC2OC(C)CC(N(C)C)C2O)[C@@](C)(OC)C[C@@H](C)C(=O)[C@H](C)[C@H]2N(CCCCn3cc(-c4cccc(N)n4)nn3)C(=O)O[C@]12C (stereo partly drawn) [OP-1357, 11-N-{4-[4-(6-Amino-pyridin-2-yl)-[1,2,3]triazol-1-yl]-butyl}-5-desosaminyl-3-oxo-2-fluoro-erythronolide A,-11,12-cyclic carbamate] | – | – | – | – | – | – | – | – | – | – | – | 4 µg/mL (≈ 4.73 µM) | ≤ 0.125 µg/mL | ≤ 0.125 µg/mL | 1 µg/mL (≈ 1.18 µM) | 0.25 µg/mL (≈ 0.296 µM) | 2 µg/mL (≈ 2.36 µM) | 1 µg/mL (≈ 1.18 µM) | 1 µg/mL (≈ 1.18 µM) | 1 µg/mL (≈ 1.18 µM) | MIC (S. pneumoniae 163(MefA); [12]): ≤ 0.125 µg/mL
CC[C@H]1OC(=O)[C@H](C)C(=O)[C@H](C)[C@@H](O[C@@H]2O[C@H](C)C[C@H](N(C)C)[C@H]2O)[C@](C)(OC)C[C@@H](C)C(=O)[C@H](C)[C@H]2N(CCCCn3cnc(-c4cccnc4)c3)C(=O)O[C@]12C [Telithromycin, reference compound] | 2 µg/mL (≈ 2.46 µM) | ≤ 0.125 µg/mL | ≤ 0.125 µg/mL | ≤ 0.125 µg/mL | 4 µg/mL (≈ 4.93 µM) | 16 µg/mL (≈ 19.7 µM) | ≤ 0.125 µg/mL | ≤ 0.125 µg/mL | ≤ 0.125 µg/mL | 16 µg/mL (≈ 19.7 µM) | > 64 µg/mL | 4 µg/mL (≈ 4.93 µM) | – | – | 1 µg/mL (≈ 1.23 µM) | 8 µg/mL (≈ 9.85 µM) | 64 µg/mL (≈ 78.8 µM) | 32 µg/mL (≈ 39.4 µM) | 1 µg/mL (≈ 1.23 µM) | 16 µg/mL (≈ 19.7 µM) | MIC (S. pneumoniae 303(ErmB); S. pneumoniae ErmB 303, Table 2): <=0.125 mcg/mL; MIC (S. pneumoniae ATCC 49619; Table 2): <=0.125 mcg/mL; MIC (S. pneumoniae 163(MefA); S. pneumoniae 163 (Mef A), Table 2): <=0.125 mcg/mL
